The values that follow come from patent publication US20100120871A1, “HAIR CARE COMPOSITIONS, METHODS, AND ARTICLES OF COMMERCE THAT CAN INCREASE THE APPEARANCE OF THICKER AND FULLER HAIR” (priority 2008, published 2010).

This assay relates to primary human dermal papilla cells. Put plainly: Survival of metabolically stressed primary human dermal papilla cells (ATP, Cell Titer Glo). The class given is cell-based. Also noted: unit not given here. As to conditions: DP cells metabolically stressed 48 hours in reduced media, ATP by Cell Titer Glo, vehicle = 0. The protocol:
Primary human dermal papilla cells were metabolically stressed for 48 hours in reduced standard tissue culture media. During this period of stress the cells were treated with the mixtures below dosed from a DMSO vehicle. After 48 hours the metabolic activity of the cells was measured by the amount of ATP using the Cell Titer Glo™ kit (Promega).
The dermal papilla, in normal human hair, is the control center for hair diameter. Increasing survival of dermal papilla cells in situ leads to increased hair diameter. Accordingly, an increase in survival of dermal papilla cells correlates with an increase in hair diameter.
(Cellular ATP, detected with luciferase, serves as a proxy for viable cell number.)

`OCCc1c[nH]c2ccccc12` [HI, Tryptophol] registered a Survival (Table 3) of 1.72.

As for `CC(C)(CO)[C@@H](O)C(=O)NCCCO` [Panthenol, panthenol], the Survival is reported as −0.17 (Table 1A), −0.17 (Table 1B), −0.01 (Table 2A) and −0.13 (Table 2B).

As to `OCc1c[nH]c2ccccc12` [Example I3C, Indole-3-Carbinol], the Survival reads like this: (Table 2A) −0.16; (Table 2B) 0.08.

For the compound `O=C(O)Cc1c[nH]c2ccccc12` [IAA, indole-3-acetic acid], the Survival reads like this: (Table 1A) −0.17; (Table 1B) −0.18.

Turning to `NC(=O)c1cccnc1` [Niacinamide, niacinamide], the Survival is −0.02 (Table 1A), −0.02 (Table 1B), −0.16 (Table 2A) and 0.1 (Table 2B).
